Source: the NIST ThermoML archive (doi:10.1021/je060271a)

Details: 283.16 K, Liquid, Vibrating tube method

CCCC(=O)OCC(COC(=O)CCC)(COC(=O)CCC)COC(=O)CCC [pentaerythritol tetrabutyrate]
Details | mass density [kg/m3]
19617 kPa | 1070.2
19631 kPa | 1070.3
19642 kPa | 1070.3
19654 kPa | 1070.3
19669 kPa | 1070.3
19681 kPa | 1070.2
19694 kPa | 1070.3
19706 kPa | 1070.4
19717 kPa | 1070.3
19732 kPa | 1070.3
19743 kPa | 1070.3
19757 kPa | 1070.3
19769 kPa | 1070.3
19781 kPa | 1070.4
19796 kPa | 1070.4
19807 kPa | 1070.3
19819 kPa | 1070.4
19834 kPa | 1070.4
19846 kPa | 1070.3
19858 kPa | 1070.5
19870 kPa | 1070.5
19885 kPa | 1070.4
19897 kPa | 1070.4
19909 kPa | 1070.4
19921 kPa | 1070.3
19936 kPa | 1070.4
19947 kPa | 1070.4
19962 kPa | 1070.5
19975 kPa | 1070.6
19986 kPa | 1070.5
20001 kPa | 1070.5
20014 kPa | 1070.5
20026 kPa | 1070.3
20039 kPa | 1070.6
20053 kPa | 1070.5
20065 kPa | 1070.5
20077 kPa | 1070.5
20092 kPa | 1070.5
20104 kPa | 1070.5
20117 kPa | 1070.6
20130 kPa | 1070.5
20145 kPa | 1070.6
20157 kPa | 1070.7
20170 kPa | 1070.5
20185 kPa | 1070.6
20197 kPa | 1070.6
20210 kPa | 1070.6
20225 kPa | 1070.6
20237 kPa | 1070.6
20250 kPa | 1070.6
20264 kPa | 1070.7
20277 kPa | 1070.6
20290 kPa | 1070.8
20305 kPa | 1070.6
20317 kPa | 1070.6
20330 kPa | 1070.7
20468 kPa | 1070.7
20480 kPa | 1070.8
20493 kPa | 1070.6
20506 kPa | 1070.8
20521 kPa | 1070.7
20534 kPa | 1070.8
20548 kPa | 1070.8
20563 kPa | 1070.8
20576 kPa | 1070.8
20592 kPa | 1070.8
20605 kPa | 1070.8
20618 kPa | 1070.8
20773 kPa | 1070.9
20787 kPa | 1070.9
20800 kPa | 1070.9
20816 kPa | 1070.9
20829 kPa | 1071
20845 kPa | 1071
20858 kPa | 1070.8
20872 kPa | 1071
20886 kPa | 1071
20900 kPa | 1071
20914 kPa | 1070.9
20930 kPa | 1071
21000 kPa | 1071
21016 kPa | 1071
21030 kPa | 1071
21044 kPa | 1071
21060 kPa | 1071
21076 kPa | 1071
21090 kPa | 1071.1
21104 kPa | 1071.1
21118 kPa | 1071.1
21134 kPa | 1071
21148 kPa | 1071.1
21162 kPa | 1071
21178 kPa | 1071.1
21192 kPa | 1071
21209 kPa | 1071
21223 kPa | 1071.1
21237 kPa | 1071.1
21251 kPa | 1071.1
21267 kPa | 1071.1
21282 kPa | 1071.2
21295 kPa | 1071.3
21312 kPa | 1071.2
21326 kPa | 1071.2
21340 kPa | 1071.1
21400 kPa | 1071.2
21417 kPa | 1071.2
21431 kPa | 1071.2
21445 kPa | 1071.3
21463 kPa | 1071.3
21477 kPa | 1071.2
21491 kPa | 1071.2
21508 kPa | 1071.2
21523 kPa | 1071.4
21537 kPa | 1071.2
21554 kPa | 1071.4
21568 kPa | 1071.3
21600 kPa | 1071.4
21723 kPa | 1071.4
21785 kPa | 1071.4
21800 kPa | 1071.4
21818 kPa | 1071.5
22023 kPa | 1071.5
22039 kPa | 1071.6
22057 kPa | 1071.6
22072 kPa | 1071.6
22087 kPa | 1071.6
22102 kPa | 1071.6
22121 kPa | 1071.5
22136 kPa | 1071.6
22154 kPa | 1071.6
22169 kPa | 1071.6
22184 kPa | 1071.6
22200 kPa | 1071.7
22219 kPa | 1071.6
22234 kPa | 1071.6
22250 kPa | 1071.7
22266 kPa | 1071.6
22284 kPa | 1071.6
22300 kPa | 1071.7
22316 kPa | 1071.7
22331 kPa | 1071.7
22790 kPa | 1071.9
22826 kPa | 1071.9
22842 kPa | 1072
22861 kPa | 1072.1
22877 kPa | 1072
